# In patent US8420630B2 (Boehringer Ingelheim Pharma GmbH & Co. KG, priority 2001, dated 2013):
# Molecular target: T1, CDK1/cyclinB1 (Homo sapiens, UniProt P06493)
# T1 construct: made in house; host or cells: High Five insect cells (Trichoplusia ni), baculovirus coinfection
# Assay: Cyclin B1-CDK1 kinase inhibition test
# Assay type: biochemical
# Details: CDK1 tests (Example 13); recombinant cyclin B1/CDK1, substrate histone H1; read-out: CDK1/cyclinB1 IC50 value
# Description: CDK4) were cloned by standard methods using RT-PCR, and cloned into a transfer vector (cyclin in pAcG2T made by Pharmingen, CDKs in p2Bac made by Invitrogen) for the baculovirus system. […] After thawing the cells were resuspended in lysing buffer (50 mM HEPES pH 7.5, 10 mM MgCl2, 1 mM DTT, 5 μg/ml leupeptin, 5 μg/ml aprotinin, 100 μM NaF, 100 μM PMSF, 10 mM β-glycerolphosphate, 100 μM Na3VO4, 30 mM nitrophenylphosphate, 17.5 ml of lysing buffer per 10^8 cells) and incubated on ice for 30 min. […] Cyclin D1-CDK4 was purified by means of a GST-tag on cyclin D1 and then using glutathione beads (total protein about 0.2 mg/ml). All the kinase tests were carried out in 96-well microtitre plates (Greiner PS) in a final volume of 60 μl. […] As a negative control the kinase reaction was carried out in the absence of the substrate histone H1. As a positive control the kinase reaction was carried out in the absence of a test substance. As an internal control 30 μM and 300 μM (final concentration) of the kinase inhibitor olomoucin (Alexis) were used. […] The kinase reaction is started by the addition of 10 μl of ATP mix (0.045 mM ATP, 0.5 μCi ^33P-ATP in kinase buffer) and incubated for 30 min at 30° C. and 600 rpm in a shaking incubator. After incubation the plates were placed on ice and the proteins were precipitated by the addition of 125 μl of ice-cold 5% trichloroacetic acid. After 15 min on ice the precipitates were transferred onto Packard Unifilter 96 GF/B plates with the Packard Harvester System, and collected by vacuum filtration. The precipitates were washed 4 times with dist. H2O at ambient temperature. The filter plates were then dried at 60° C. and 50 μl of scintillation liquid were added to each well (Ultima Gold, Packard). The plate was sealed up with Sealing Tape and after 1 h measured in a scintillation measuring apparatus (Micro Beta made by Wallac).
# T1 sequence (P06493 whole entry): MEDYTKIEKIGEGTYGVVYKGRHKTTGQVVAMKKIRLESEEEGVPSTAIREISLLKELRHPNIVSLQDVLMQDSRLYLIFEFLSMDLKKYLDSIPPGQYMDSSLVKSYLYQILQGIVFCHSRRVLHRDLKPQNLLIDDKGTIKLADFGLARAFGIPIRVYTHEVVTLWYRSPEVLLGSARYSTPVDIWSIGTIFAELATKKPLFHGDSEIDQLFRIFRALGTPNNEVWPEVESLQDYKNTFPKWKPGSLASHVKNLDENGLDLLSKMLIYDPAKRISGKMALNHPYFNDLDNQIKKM
# T1 sequence (P14635 whole entry partner): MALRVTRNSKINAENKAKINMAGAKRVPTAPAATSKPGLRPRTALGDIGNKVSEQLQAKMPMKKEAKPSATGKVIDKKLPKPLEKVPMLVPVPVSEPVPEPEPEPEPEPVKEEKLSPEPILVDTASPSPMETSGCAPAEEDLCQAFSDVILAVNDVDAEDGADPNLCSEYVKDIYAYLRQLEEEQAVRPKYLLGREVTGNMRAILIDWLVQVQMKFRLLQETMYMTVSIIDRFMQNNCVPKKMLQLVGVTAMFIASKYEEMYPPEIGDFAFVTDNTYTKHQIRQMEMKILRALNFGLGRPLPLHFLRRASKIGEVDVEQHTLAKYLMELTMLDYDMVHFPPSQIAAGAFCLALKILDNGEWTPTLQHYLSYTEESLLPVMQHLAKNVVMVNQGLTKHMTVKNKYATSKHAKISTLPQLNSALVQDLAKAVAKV
row,SMILES,IC50
1,"Cn1ncc2ccc(Nc3ncc(C(F)(F)F)c(NCCCNC(=O)Cc4ccccc4)n3)cc21 [Example 7(021), N-{3-[2-(1-methyl-1H-indazol-6-ylamino)-5-trifluoromethyl-pyrimidin-4-ylamino]-propyl}-2-phenyl-acetamide]",< 100 nM
2,"O=C1CCCN1CCCNc1nc(Nc2ccc(Cl)cc2)ncc1C(F)(F)F [Example 1(011), 2-(4-chlorophenylamino)-4-(3-(2-oxo-pyrrolidin-1-yl)-propyl-1-amino)-5-trifluoromethyl-pyrimidine]",< 100 nM
3,NCCCOCCCNc1nc(Nc2ccc(Cl)c(Cl)c2)ncc1C(F)(F)F [Example 1(073)],< 100 nM
4,"Cn1ncc2ccc(Nc3ncc(C(F)(F)F)c(NCCCNS(=O)(=O)c4ccc(F)cc4)n3)cc21 [Example 7(012), 4-fluoro-N-{3-[2-(1-methyl-1H-indazol-6-ylamino)-5-trifluoromethyl-pyrimidin-4-ylamino]-propyl}-benzensulphonamide]",< 100 nM
5,"CC(=O)NCCNc1nc(Nc2ccc(C(=O)NCc3cc(F)cc(F)c3)cc2)ncc1C(F)(F)F [Example 8(026), 4-[4-(2-acetylamino-ethylamino)-5-trifluoromethyl-pyrimidin-2-ylamino]-N-(3,5-difluorobenzyl)-benzamide]",< 100 nM
6,"O=C1CCCN1CCCNc1nc(Nc2ccccc2)ncc1C(F)(F)F [Example 1(031), 2-phenylamino-4-(3-(2-oxo-pyrrolidin-1-yl)-propyl-1-amino)-5-trifluoromethyl-pyrimidine]",< 100 nM
7,"O=[N+]([O-])c1cccc(Nc2ncc([N+](=O)[O-])c(N3CCCC(CO)C3)n2)c1 (stereo not drawn) [Example 1(050), 2-(3-nitro-phenylamino)-4-(3-hydroxymethyl-piperidin-1-yl)-5-nitro-pyrimidine]",< 100 nM
8,"NCC1CCN(c2nc(Nc3cccc(Br)c3)ncc2[N+](=O)[O-])CC1 [Example 1(042), 2-(3-bromo-phenylamino)-4-(4-aminomethyl-piperidin-1-yl)-5-nitro-pyrimidine]",< 100 nM
9,"O=C(O)c1ccc(Nc2ncc(C(F)(F)F)c(N3CCc4[nH]cnc4C3)n2)cc1 [Example 1(017), 2-(4-carboxy-phenylamino)-4-(1,4,6,7-tetrahydro-imidazo[4,5-c]pyridin-5-yl)-5-trifluoromethyl-pyrimidine]",< 100 nM
10,"NCCc1ccccc1CCNc1nc(Nc2ccc(Cl)c(Cl)c2)ncc1C(F)(F)F [Example 1(349), 2-(3,4-dichlorophenylamino)-4-(2-(2-(2-amino-1-ethyl)-phenyl)-1-ethyl-amino)-5-trifluoromethyl-pyrimidine]",< 100 nM
11,"NCCCCCNc1nc(Nc2ccc(Cl)cc2)ncc1C(F)(F)F [Example 1(079), 2-(4-chloro-phenylamino)-4-(5-amino-pentyl-1-amino)-5-trifluoromethyl-pyrimidine]",< 100 nM
12,"CCC(=O)NCCCNc1nc(Nc2ccc3cnn(C)c3c2)ncc1C(F)(F)F [Example 7(006), N-{3-[2-(1-methyl-1H-indazol-6-ylamino)-5-trifluoromethyl-pyrimidin-4-ylamino]-propyl}-propionamide]",< 100 nM
13,"CN1CCC2(CCN(c3nc(Nc4ccc(Cl)c(Cl)c4)ncc3C(F)(F)F)C2)C1 (stereo not drawn) [Example 1(117), 2-(3,4-dichlorophenylamino)-4-(7-methyl-2,7-diaza-spiro[4.4]non-2-yl)-5-trifluoromethyl-pyrimidine]",< 100 nM
14,"CN(C)C(=O)NCCCNc1nc(Nc2ccc3cnn(C)c3c2)ncc1C(F)(F)F [Example 7(035), 1,1-dimethyl-3-{3-[2-(1-methyl-1H-indazol-6-ylamino)-5-trifluoromethyl-pyrimidin-4-ylamino]-propyl}-urea]",< 100 nM
15,"O=C1CCCN1CCCNc1nc(Nc2ccc3[nH]nnc3c2)ncc1C(F)(F)F [Example 2(036), 1-{3-[2-(1H-Benzotriazol-5-ylamino)-5-trifluoromethyl-pyrimidin-4-ylamino]-propyl}-pyrrolidin-2-one]",< 100 nM
16,"CC(=O)NC(C)(C)CNc1nc(Nc2ccc(S(=O)(=O)N3CCOCC3)cc2)ncc1C(F)(F)F [Example 1(685), N-(1,1-dimethyl-2-{2-[4-(morpholine-4-sulphonyl)-phenylamino]-5-trifluoromethyl-pyrimidin-4-ylamino}-ethyl)-acetamide]",< 100 nM
17,"CC(=O)NCCNc1nc(Nc2ccc(S(=O)(=O)N(C)C)cc2)ncc1C(F)(F)F [Example 2(047), N-{2-[2-(4-Dimethylsulphamoyl-phenylamino)-5-trifluoromethyl-pyrimidin-4-ylamino]-ethyl}-acetamide]",< 100 nM

row,SMILES,IC50
1,"O=C1CCCN1CCCNc1nc(Nc2ccc3cn[nH]c3c2)ncc1Cl [Example 2(048), 1-{3-[5-chloro-2-(1H-indazol-6-ylamino)-pyrimidin-4-ylamino]-propyl}-pyrrolidin-2-on]",< 100 nM
2,CC(C)COC(=O)NCCCNc1nc(Nc2ccc3cnn(C)c3c2)ncc1C(F)(F)F [Example 7(024)],< 100 nM
3,"CC(=O)N(C)CC1CCN(c2nc(Nc3ccc(Cl)cc3)ncc2[N+](=O)[O-])CC1 [Example 1(052), 2-(4-chloro-phenylamino)-4-(4-(N-acetyl-N-methyl-aminomethyl)-piperidin-1-yl)-5-nitro-pyrimidine]",< 100 nM
4,"Nc1c(Cl)cc(Nc2ncc([N+](=O)[O-])c(N3CCc4[nH]cnc4C3)n2)cc1Cl [Example 1(113), 2-(4-amino-3,5-dichlorophenylamino)-4-(1,4,6,7-tetrahydro-imidazo[4,5-c]pyridin-5-yl)-5-nitro-pyrimidine]",< 100 nM
5,"FC(F)(F)c1cnc(Nc2ccc3ccccc3c2)nc1N1CCc2[nH]cnc2C1 [Example 1(152), 2-(2-naphthylamino)-4-(1,4,6,7-tetrahydro-imidazo[4,5-c]pyridin-5-yl)-5-trifluoromethyl-pyrimidine]",< 100 nM
6,"CC(=O)NCCNc1nc(Nc2ccc(S(N)(=O)=O)cc2)ncc1C(F)(F)F [Example 2(008), 2-(4-aminosulphonyl-phenylamino)-4-(2-acetylamino-ethylamino)-5-trifluoromethyl-pyrimidine]",< 100 nM
7,"Brc1cnc(Nc2ccc3cn[nH]c3c2)nc1N1CCc2[nH]cnc2C1 [Example 2(142), [5-Bromo-4-(1,4,6,7-tetrahydro-imidazo[4,5-c]pyridin-5-yl)-pyrimidin-2-yl]-(1H-indazol-6-yl)-amine]",< 100 nM
8,"COCC(=O)NCCCNc1nc(Nc2ccc3cnn(C)c3c2)ncc1C(F)(F)F [Example 7(013), 2-methoxy-N-{3-[2-(1-methyl-1H-indazol-6-ylamino)-5-trifluoromethyl-pyrimidin-4-ylamino]-propyl}-acetamide]",< 100 nM
9,"O=[N+]([O-])c1cnc(Nc2cccc(Br)c2)nc1N1CCc2[nH]cnc2C1 [Example 1(119), 2-(3-bromophenylamino)-4-(1,4,6,7-tetrahydro-imidazo[4,5-c]pyridin-5-yl)-5-nitro-pyrimidine]",< 100 nM
10,NC(=O)c1ccc(Nc2ncc(Br)c(NCCCN3CCCC3=O)n2)cc1 [Example 1(662)],< 100 nM
11,"CN(C)S(=O)(=O)c1ccc(Nc2ncc(C(F)(F)F)c(NCCN3CCCC3=O)n2)cc1 [Example 1(683), N,N-dimethyl-4-{4-[2-(2-oxo-pyrrolidin-1-yl)-ethylamino]-5-trifluoromethyl-pyrimidin-2-ylamino}-phenylsulphonamide]",< 100 nM
12,"COc1cc(C(O)CNc2nc(Nc3ccc(Cl)c(Cl)c3)ncc2C(F)(F)F)ccc1O (stereo not drawn) [Example 1(053), 2-(3,4-dichloro-phenylamino)-4-(2-(4-hydroxy-3-methoxy-phenyl)-2-hydroxy-1-ethylamino)-5-trifluoromethyl-pyrimidine]",< 100 nM
13,"NCCCNc1nc(Nc2ccc(C(N)=O)cc2)ncc1C(F)(F)F [Example 1(693), 4-[4-(3-aminopropylamino)-5-trifluoromethyl-pyrimidin-2-ylamino]benzamide]",< 100 nM
14,"O=[N+]([O-])c1cnc(Nc2ccc(Cl)cc2)nc1N1CCCC(CCCCN2CCCC2)C1 (stereo not drawn) [Example 1(028), 2-(4-chloro-phenylamino)-4-(3-(4-(pyrrolidin-1-yl)butyl)-piperidin-1-yl)-5-nitro-pyrimidine]",< 100 nM
15,"CC(=O)NCCNc1nc(Nc2ccc3cn[nH]c3c2)ncc1C(F)(F)F [Example 2(044), N-{2-[2-(1H-Indazol-6-ylamino)-5-trifluoromethyl-pyrimidin-4-ylamino]-ethyl}-acetamide]",< 100 nM
16,"CC(=O)NCCNc1nc(Nc2ccc(-c3nn[nH]n3)cc2)ncc1C(F)(F)F [Example 2(046), N-(2-{2-[4-(2H-Tetrazol-5-yl)-phenylamino]-5-trifluoromethyl-pyrimidin-4-ylamino}-ethyl)-acetamide]",< 100 nM
